Assay results published in patent US4992449A, “7-(substituted)cycloalkylamino-1 -(substituted)-6-fluoro-1,4-dihydro-4-oxo-3-quinolinecarboxylic acids” (American Cyanamid Company, priority 1990, dated 1991).
Converted amounts (≈) assume the structure as drawn. Like-named read-outs stand apart in the source and are kept apart here.

What was measured:
Test in all cases: In vitro antibacterial MIC, agar plate dilution
Format in all cases: cell-based
[1] = system: Enterobacter cloacae K 84-10; settings: K8410, Mueller-Hinton agar, 10^4 CFU, 18 hours, 35° C.
Procedure: (§1) The in vitro antimicrobial spectrum of the compounds of this invention were determined by the agar plate dilution method with Mueller-Hinton agar and an inoculum of each test organism of approximately 10^4 colony forming units delivered by the Steers replicating device. The minimal inhibitory concentration (MIC) in mcg/ml is defined as the lowest concentration of test compound that inhibited visible growth after 18 hours incubation at 35° C. Results are given in Table I, with the test compounds identified by the number of their hereinafter described examples

[2] = system: Enterobacter cloacae VGH 84-39; settings: VGH8439, Mueller-Hinton agar, 10^4 CFU, 18 hours, 35° C.
Procedure: as §1

[3] = system: Escherichia coli ATCC 25922; settings: Escherichia coli, ATCC25922, 18 h, read-out: MIC
Procedure: as §1

[4] = system: Escherichia coli MOR 84-20; settings: MOR8420, Mueller-Hinton agar, 10^4 CFU, 18 hours, 35° C.
Procedure: as §1

[5] = system: Escherichia coli VGH 84-19; settings: VGH8419, Mueller-Hinton agar, 10^4 CFU, 18 hours, 35° C.
Procedure: as §1

[6] = system: Excherichia coli CMC 84-11; settings: 18 h, Table II, read-out: MIC
Procedure: as §1

Excherichia coli LL 311 = settings: 18 h, Table II, read-out: MIC
Procedure: as §1

[7] = system: Klebsiella neumoniae IO 83-5; settings: IO835, Mueller-Hinton agar, 10^4 CFU, 18 hours, 35° C.
Procedure: as §1

[8] = system: Moranella morganii CMC 84-38; settings: Mueller-Hinton agar, 10^4 CFU, 18 hours, 35° C.
Procedure: as §1

[9] = system: Moranella morganii VGH 84-12; settings: Mueller-Hinton agar, 10^4 CFU, 18 hours, 35° C.
Procedure: as §1

[10] = system: Morganella morganii CMC 84-37; settings: CMC8437, 18 h, Table II, read-out: MIC
Procedure: as §1

[11] = system: Morganella morganii MOR 84-45; settings: MOR8445, Mueller-Hinton agar, 10^4 CFU, 18 hours, 35° C.
Procedure: as §1

[12] = system: Proteus rettgeri CMC 84-41; settings: Providencia rettgeri, CMC8441, 18 h, Table II, read-out: MIC
Procedure: as §1

[13] = system: Proteus rettgeri IO 83-21; settings: Providencia rettgeri, IO8321, Mueller-Hinton agar, 10^4 CFU, 18 hours, 35° C.
Procedure: as §1

[14] = system: Providencia stuartii CMC 83-3; settings: CMC833, Mueller-Hinton agar, 10^4 CFU, 18 hours, 35° C.
Procedure: as §1

[15] = system: Pseudomonas aeruginosa CMC 83-20; settings: CMC8320, Mueller-Hinton agar, 10^4 CFU, 18 hours, 35° C.
Procedure: as §1

[16] = system: Pseudomonas aeruginosa LL-1244; settings: Pseudomonas aeruginosa, LL1244, 18 h, Table II, read-out: MIC
Procedure: as §1

[17] = system: Serratia marcescens CMC 83-74; settings: CMC8374, Mueller-Hinton agar, 10^4 CFU, 18 hours, 35° C.
Procedure: as §1

[18] = system: Serratia marcescens K 84-18; settings: K8418, 18 h, Table II, read-out: MIC
Procedure: as §1

[19] = system: Serratia marcescens MOR 84-41; settings: MOR8441, Mueller-Hinton agar, 10^4 CFU, 18 hours, 35° C.
Procedure: as §1

[20] = system: Serratia marcescens VGH 84-30; settings: VGH8430, 18 h, Table II, read-out: MIC
Procedure: as §1

[21] = system: Staphylococcus aureus ATCC 29213; settings: Staphylococcus aureus, ATCC29213, 18 h, read-out: MIC
Procedure: as §1

[22] = system: Staphylococcus aureus K 82-26; settings: K8226, Mueller-Hinton agar, 10^4 CFU, 18 hours, 35° C.
Procedure: as §1

[23] = system: Staphylococcus aureus Smith 1; settings: Staphylococcus aureus, SMITH1, 18 h, Table II, read-out: MIC
Procedure: as §1

[24] = system: Staphylococcus aureus VGH 84-45; settings: VGH8445, 18 h, Table II, read-out: MIC
Procedure: as §1

[25] = system: Staphylococcus aureus VGH 84-47; settings: VGH8447, Mueller-Hinton agar, 10^4 CFU, 18 hours, 35° C.
Procedure: as §1

[26] = system: Staphylococcus faecalis CMC 83-120; settings: CMC83120, Mueller-Hinton agar, 10^4 CFU, 18 hours, 35° C.
Procedure: as §1

[27] = system: Staphylococcus faecalis VGH 84-69; settings: VGH8469, Mueller-Hinton agar, 10^4 CFU, 18 hours, 35° C.
Procedure: as §1

[28] = system: Streptococcus faecalis UCI 85-19; settings: Enterococcus faecalis, UCI8519, 18 h, Table II, read-out: MIC
Procedure: as §1

[29] = system: Streptococcus faecalis VGH 84-65; settings: Enterococcus faecalis, VGH8465, 18 h, Table II, read-out: MIC
Procedure: as §1

[30] = Table I, Escherichia coli ATCC 25922, Mueller-Hinton agar, 10^4 CFU, 18 hours, 35° C.
[31] = Table II, Excherichia coli ATCC 25922
[32] = Table I, Mueller-Hinton agar, 10^4 CFU, 18 hours, 35° C.

Compound	MIC [1]	MIC [2]	MIC [3, 30]	MIC [3, 31]	MIC [4]	MIC [5]	MIC [6]	MIC (Excherichia coli LL 311)	MIC [7]	MIC [8]	MIC [9]	MIC [10]	MIC [11]	MIC [12]	MIC [13]	MIC [14]	MIC [15]	MIC [16]	MIC [17]	MIC [18]	other results
N[C@H]1CCC[C@H]1Nc1cc2c(cc1F)c(=O)c(C(=O)O)cn2-c1ccc(F)cc1 (relative stereo) [Example 3]	2 µg/mL (≈ 5.01 µM)	2 µg/mL (≈ 5.01 µM)	2 µg/mL (≈ 5.01 µM)	1 µg/mL (≈ 2.5 µM)	2 µg/mL (≈ 5.01 µM)	2 µg/mL (≈ 5.01 µM)	1 µg/mL (≈ 2.5 µM)	1 µg/mL (≈ 2.5 µM)	4 µg/mL (≈ 10 µM)	8 µg/mL (≈ 20 µM)	4 µg/mL (≈ 10 µM)	4 µg/mL (≈ 10 µM)	4 µg/mL (≈ 10 µM)	4 µg/mL (≈ 10 µM)	4 µg/mL (≈ 10 µM)	> 16 µg/mL	> 16 µg/mL	16 µg/mL (≈ 40.1 µM)	> 16 µg/mL	2 µg/mL (≈ 5.01 µM)	MIC [19]: 4 µg/mL (≈ 10 µM); MIC [20]: 8 µg/mL (≈ 20 µM); MIC [21, 32]: 4 µg/mL (≈ 10 µM); MIC ([21]; Table II): 4 µg/mL (≈ 10 µM); MIC [22]: 4 µg/mL (≈ 10 µM); MIC [23]: 2 µg/mL (≈ 5.01 µM); MIC [24]: 4 µg/mL (≈ 10 µM); MIC [25]: 4 µg/mL (≈ 10 µM); MIC [26]: > 16 µg/mL; MIC [27]: > 16 µg/mL; MIC [28]: 64 µg/mL (≈ 160 µM); MIC [29]: 64 µg/mL (≈ 160 µM)
CCn1cc(C(=O)O)c(=O)c2cc(F)c(N[C@@H]3CCC[C@@H]3N)cc21 (relative stereo) [Example 4, Cis-7-[(2-Aminocyclopentyl)amino]-1-ethyl-6-fluoro-1,4-dihydro-4-oxo-3-quinolinecarboxylic acid]	1 µg/mL (≈ 3 µM)	1 µg/mL (≈ 3 µM)	0.5 µg/mL (≈ 1.5 µM)	2 µg/mL (≈ 6 µM)	1 µg/mL (≈ 3 µM)	1 µg/mL (≈ 3 µM)	2 µg/mL (≈ 6 µM)	2 µg/mL (≈ 6 µM)	2 µg/mL (≈ 6 µM)	1 µg/mL (≈ 3 µM)	2 µg/mL (≈ 6 µM)	4 µg/mL (≈ 12 µM)	0.5 µg/mL (≈ 1.5 µM)	8 µg/mL (≈ 24 µM)	2 µg/mL (≈ 6 µM)	> 16 µg/mL	> 16 µg/mL	32 µg/mL (≈ 96 µM)	> 16 µg/mL	4 µg/mL (≈ 12 µM)	MIC [19]: 1 µg/mL (≈ 3 µM); MIC [20]: 16 µg/mL (≈ 48 µM); MIC [21, 32]: 4 µg/mL (≈ 12 µM); MIC ([21]; Table II): 128 µg/mL (≈ 384 µM); MIC [22]: 1 µg/mL (≈ 3 µM); MIC [23]: 8 µg/mL (≈ 24 µM); MIC [24]: 64 µg/mL (≈ 192 µM); MIC [25]: 2 µg/mL (≈ 6 µM); MIC [26]: 4 µg/mL (≈ 12 µM); MIC [27]: 4 µg/mL (≈ 12 µM); MIC [28]: 32 µg/mL (≈ 96 µM); MIC [29]: 32 µg/mL (≈ 96 µM)
